Values of other authors in patent US20130052262A1, “DABIGATRAN ETEXILATE-CONTAINING ORAL PHARMACEUTICAL COMPOSITION” (priority 2010, published 2013).

Details: in the acidic environment

CCCCCCOC(=O)NC(=N)c1ccc(NCc2nc3cc(C(=O)N(CCC(=O)OCC)c4ccccn4)ccc3n2C)cc1 [dabigatran etexilate, 3-[(2-{[4-(hexyloxycarbonylamino-imino-methyl)-phenylamino]-methyl}-1-methyl-1H-benzimidazole-5-carbonyl)-pyridine-2-yl-amino]-propionic acid ethyl ester]
pH-dependent solubility: greatly increased
